Results published in patent US20060293275A1, “Hgf production accelerator containing heparin-like oligosaccharide” (priority 2004, published 2006).

Columns and labels:
[1] = system: MRC-9 cells, human fetal lung fibroblasts; experiment: Activity to promote HGF production in MRC-9 cells (HGF in culture medium by ELISA); type: cell-based; conditions: 0 to 50 μg/ml
Experimental: An activity to promote HGF production of the agent of the present invention can be measured by comparing the HGF concentration in the culture medium of HGF-producing cells when the sugar chain compounds such as oligosaccharides or a salt thereof are added with that when they are not added, wherein the concentration of HGF can be measured by ELISA. As an HGF-producing cell, MRC-5 and MRC-9 cells, human fetal lung fibroblasts, can be used.
Activities to promote HGF production of the heparin fragments (oligosaccharides) obtained in Example 1 were measured by using MRC-9 cells, human fetal lung fibroblasts. The cells were cultured with heparin fragments(oligosaccharides) and amounts of HGF produced by the cell were analyzed. First, MRC-9 cells were seeded onto a 48 well plate at a density of 5×10^4 cells/cm^2, and cultured in a DMEM medium containing 10% FCS for one day. After removing the medium, the cells were washed twice with 0.5 mL of PBS, and the medium was exchanged with a DMEM medium containing 1% FCS. Thereafter, the culture was continued. At this time, the heparin fragments obtained in Example 1 were added to the medium at a final concentration of 1 μg/ml. After 24 hours, the culture supernatant was recovered, and an amount of HGF secreted into the culture medium was measured by the ELISA method. […]

[2] = system: lipoprotein lipase (LPL); experiment: LPL releasing activity (LPL amount in plasma by ELISA after tail vein administration); type: in vivo, Wister rat; conditions: rat, after 10 minutes
Description: LPL releasing activity of the sugar chain compound such as oligosaccharide used in the agent of the present invention for promoting HGF production or a salt thereof can be assessed by administering the sugar chain compound or a salt thereof to a mouse or a rat, taking the plasma after a certain time, and measuring the amount of LPL in the plasma. The amount of LPL in the plasma can be determined by measuring LPL activity, or measuring the mass of LPL protein by ELISA.
For measuring LPL releasing activity, heparin fragments were administered to Wister rat (3-week old male) via the tail vein at 0.3 μg per 1 g of body weight and, after 10 minutes, blood was taken from axillary fossa venous plexus, and a LPL amount in the resulting plasma was measured by ELISA (Daiichi Pure Chemicals Co., Ltd). In high-molecular weight heparin, about 250 ng/mL LPL was released, but in low-molecular weight heparin (Fragmin, Kissei Pharmaceutical Co., Ltd.), released LPL amount was reduced to about 30% of the amount in the case of high-molecular weight heparin. […] In particular, in oligosaccharides not larger than octasaccharide, reduction in released LPL amount was remarkable.

[3] = system: fresh plasma taken from Wister rat; experiment: Anti-blood coagulation activity by activated partial thromboplastin time (APTT); type: biochemical; conditions: 9 μg/mL or 3 μg/mL
Description: Anti-blood coagulation activity of the sugar chain compound such as oligosaccharide or a salt thereof used in the agent of the present invention for promoting HGF production can be assessed by measuring an activated partial thromboplastin time (APTT) or anti-factor Xa activity according to the known methods that have been used for measuring anti-blood coagulation activity of low-molecular-weight heparin.
Regarding the heparin fragments (oligosaccharides) obtained in Example 1, anti-blood coagulation activity and LPL releasing activity were measured. Anti-blood coagulation activity was assessed by comparing an activated partial thromboplastin time (APTT). APTT was measured using fresh plasma taken from Wister rat (male) and Data φ·APTT kit (Sysmex) which utilizes activation by ellagic acid. The heparin fragments were added to rat plasma at a concentration of 9 μg/mL or 3 μg/mL, and APTT values (second) were compared.

| SMILES | activity to promote HGF production of disaccharide compounds (in words) [1] | LPL releasing activity (in words) [2] | anti-blood coagulation activity / extension of APTT (in words) [3] |
| --- | --- | --- | --- |
| CC(=O)N[C@H]1C(O)O[C@H](COS(=O)(=O)O)[C@@H](O[C@@H]2OC(C(=O)O)=C[C@H](O)[C@H]2O)[C@@H]1O (some centres unmarked) [2-Sac-6S, ΔUA-GlcNAc-6S] | higher activity to promote HGF production than 2-Sac-2S | not detected | not detected |
| NC1C(O)OC(CO)C(OC2OC(C(=O)O)=CC(O)C2OS(=O)(=O)O)C1O (stereo not drawn) [2-Sac-2S, ΔUA-2S-GlcN] | – | not detected | not detected |
| O=C(O)C1=C[C@H](O)[C@@H](O)[C@H](O[C@H]2[C@H](O)[C@@H](NS(=O)(=O)O)C(O)O[C@@H]2CO)O1 (some centres unmarked) [2-Sac-NS, ΔUA-GlcNS] | higher activity to promote HGF production than 2-Sac-2S | not detected | not detected |
